The results in this text go back to PubChem BioAssay (NCI).

Among the test systems are BT-549 breast; COLO 205 colon; MOLT-4 leukemia; NCI-H226 lung; NCI-H522 lung; OVCAR-3 ovarian; OVCAR-4 ovarian; SF-268 CNS; SF-295 CNS; SF-539 CNS; SN12C renal; SW-620 colon.
Common to all, as to experiment: NCI tumour cell line growth inhibition, 48 h

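Interpolation was linear, between the two tested concentrations surrounding the appropriate level; five concentrations were tested over 48 hours in 96-well plates. At the TGI there is no net growth.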

For the compound `Cc1cccc2sc(NC(=O)c3cc([N+](=O)[O-])ccc3Cl)nc12`, the TGI in the assay with BT-549 breast is 9.5 µM; with COLO 205 colon, above 71.3 µM; with MOLT-4 leukemia, above 100 µM; in the assay on NCI-H226 lung, above 64.1 µM; in the assay on NCI-H522 lung, 4.1 µM; in the assay with OVCAR-3 ovarian, 17.4 µM. In addition, the TGI was above 100 µM in the assay with OVCAR-4 ovarian; above 33.7 µM in the assay with SF-268 CNS; above 100 µM in the assay on SF-295 CNS; 6.25 µM with SF-539 CNS; 3.34 µM in the assay on SN12C renal; 6.35 µM with SW-620 colon.

Take `N#CC1C(=O)Nc2sc(C(=O)c3ccc(Br)cc3)c(N)c2C12CCCCC2` (configuration not stated): the TGI in the assay with BT-549 breast was above 100 µM; with COLO 205 colon it was 40.1 µM; in the assay with MOLT-4 leukemia, above 100 µM; in the assay with NCI-H226 lung, 80.8 µM; in the assay on NCI-H522 lung it was 78.8 µM; in the assay on OVCAR-3 ovarian it was 52.7 µM. The TGI in the assay on OVCAR-4 ovarian was above 100 µM; in the assay with SF-268 CNS, above 100 µM; in the assay on SF-295 CNS, above 100 µM; in the assay with SF-539 CNS, 42.6 µM; with SN12C renal, above 100 µM; with SW-620 colon it was 69.4 µM.

`Oc1[nH]c2ccccc2c1N=NC1=NCCCCN1`: the TGI in the assay with BT-549 breast, in the assay on COLO 205 colon, with MOLT-4 leukemia, in the assay with NCI-H226 lung, in the assay on NCI-H522 lung and in the assay with OVCAR-3 ovarian was above 100 µM each time. In addition, the TGI in the assay on OVCAR-4 ovarian, in the assay on SF-268 CNS, in the assay on SF-295 CNS, in the assay with SF-539 CNS, in the assay with SN12C renal and with SW-620 colon was above 100 µM in each case.

Take `CO/N=C1\CCC2(O)C3Cc4ccc(O)c5c4C2(CCN3CC2CC2)[C@H]1O5` (some centres not stated): the TGI in the assay with BT-549 breast, in the assay with COLO 205 colon, in the assay on MOLT-4 leukemia, in the assay on NCI-H226 lung, in the assay on NCI-H522 lung and in the assay on OVCAR-3 ovarian was above 100 µM in each case. Moreover, the TGI with OVCAR-4 ovarian, with SF-268 CNS, in the assay with SF-295 CNS, in the assay on SF-539 CNS, with SN12C renal and in the assay with SW-620 colon was above 100 µM in each case.

Regarding `CC(=O)Oc1ccn2nc(C)c(Br)c2c1Br`, the TGI in the assay on BT-549 breast is 60.2 µM; in the assay with COLO 205 colon it was 38 µM; in the assay on MOLT-4 leukemia it was 34.9 µM; in the assay with NCI-H226 lung it was above 60.2 µM; with NCI-H522 lung, 36.8 µM; in the assay with OVCAR-3 ovarian, 33.4 µM. Also, the TGI was 30.6 µM in the assay with OVCAR-4 ovarian; above 90.1 µM in the assay with SF-268 CNS; above 89.3 µM in the assay with SF-295 CNS; 45.7 µM in the assay on SF-539 CNS; above 57.8 µM in the assay on SN12C renal; above 73.6 µM with SW-620 colon.

For the compound `O=C1Oc2ccccc2C(=O)/C1=C/N1C(=O)/C(=C/c2ccc([N+](=O)[O-])cc2)SC1=S`, the TGI is 31.2 µM in the assay with BT-549 breast; 53.2 µM in the assay with COLO 205 colon; above 100 µM in the assay with MOLT-4 leukemia; 53.4 µM with NCI-H226 lung; 70.1 µM in the assay with NCI-H522 lung; 5.85 µM in the assay with OVCAR-3 ovarian. Further, the TGI was above 100 µM in the assay with OVCAR-4 ovarian; 75.4 µM in the assay on SF-268 CNS; 68 µM in the assay with SF-295 CNS; 45 µM in the assay on SF-539 CNS; 51.6 µM with SN12C renal; above 100 µM in the assay with SW-620 colon.

As to `COc1cccc(NCC(=O)Nn2c(-c3ccccc3)nc3ccccc3c2=O)c1`, the TGI with BT-549 breast, with COLO 205 colon, in the assay with MOLT-4 leukemia, in the assay with NCI-H226 lung, with NCI-H522 lung and with OVCAR-3 ovarian was above 100 µM each time. Moreover, the TGI in the assay on OVCAR-4 ovarian, in the assay with SF-268 CNS, with SF-295 CNS, in the assay with SF-539 CNS, in the assay with SN12C renal and in the assay with SW-620 colon was above 100 µM throughout.

Regarding `O=c1c2cc(Br)ccc2oc2nc3n(c(=O)c12)CCCS3`, the TGI in the assay with BT-549 breast, in the assay with COLO 205 colon, in the assay on MOLT-4 leukemia, with NCI-H226 lung, in the assay with NCI-H522 lung and in the assay with OVCAR-3 ovarian was above 100 µM each time. The TGI with OVCAR-4 ovarian, in the assay on SF-268 CNS, in the assay with SF-295 CNS, with SF-539 CNS, with SN12C renal and in the assay on SW-620 colon was above 100 µM each time.

As for `N[C@@H]1c2c(Br)sc(Br)c2[C@H](O)[C@@H]1O`, the TGI in the assay on BT-549 breast, in the assay with COLO 205 colon, with MOLT-4 leukemia, in the assay on NCI-H226 lung, in the assay on NCI-H522 lung and in the assay with OVCAR-3 ovarian was above 100 µM each time. Further, the TGI in the assay with OVCAR-4 ovarian, with SF-268 CNS, in the assay with SF-295 CNS, in the assay with SF-539 CNS, in the assay on SN12C renal and with SW-620 colon was above 100 µM in each case.

Take `CCCCCCCCCCCCCCCCCCNc1ccn(C2OC(COP(=O)(O)O)C(O)C2O)c(=O)n1` (configuration not stated): the TGI in the assay on BT-549 breast, in the assay with COLO 205 colon, in the assay on MOLT-4 leukemia, in the assay with NCI-H226 lung, in the assay on NCI-H522 lung and in the assay on OVCAR-3 ovarian was above 100 µM in each case. For the same compound, the TGI in the assay with OVCAR-4 ovarian, with SF-268 CNS, with SF-295 CNS, with SF-539 CNS, in the assay with SN12C renal and in the assay with SW-620 colon was above 100 µM each time.

As to `CCOC(=O)CCC(NC(=O)c1ccc(CNc2nc3cc(N)cc(N)c3nc2-c2ccccc2)cc1)C(=O)OCC` (configuration not stated), the TGI in the assay on BT-549 breast is above 100 µM; in the assay with COLO 205 colon it was above 100 µM; in the assay with MOLT-4 leukemia, 9.43 µM; with NCI-H226 lung, above 100 µM; with NCI-H522 lung it was above 100 µM; with OVCAR-3 ovarian, above 100 µM. Further, the TGI with OVCAR-4 ovarian was 42 µM; with SF-268 CNS, above 100 µM; in the assay on SF-295 CNS it was above 100 µM; in the assay on SF-539 CNS it was above 100 µM; in the assay on SN12C renal, above 90.2 µM; in the assay with SW-620 colon it was above 100 µM.
